In patent publication US20240300927A1, “AMIDES AS CBL-B INHIBITORS” (Genentech, Inc., priority 2021, published 2024):

Assays:
Cbl-b = Cbl-b (Homo sapiens (Human), UniProt Q13191); assay: Cbl-b LCK Ub TR-FRET assay (Cbl-b Lck HTRF); type: biochemical; details: for (fold-selectivity): Cbl-b and C-Cbl selectivity, Lck HTRF; for IC50: read-out: Cbl-b Lck HTRF IC50
Experimental: (§1) Compounds were 3-fold serially diluted in DMSO in a 384-well polypropylene plate (#P-05525-BC; Labcyte) to generate a source plate with 10 concentrations of each compound, top concentration=2 mM. 80 nL of DMSO or compounds were transferred to each well of a black 384-well ProxiPlate (#6008260; PerkinElmer) using a Labcyte Echo. 1× assay buffer (50 mM HEPES pH7.0, 100 mM NaCl, 0.01% BSA, 0.01% Triton-X100, 1 mM DTT), 2× enzyme solution (16 nM Biotin-Cbl-b or 12 nM Biotin-c-Cbl in 1× assay buffer), 2× kinase mixture (120 nM His-LCK, 1 mM ATP, 10 mM MgCl2 in assay buffer) and 2.33× detection mixture (4.66× solution 1: 163 nM Anti-HA-D2 antibody (#610HADAB; PerkinElmer), 27.96 nM Streptavidin-EU (#AD0062; PerkinElmer), 1.398 mM EDTA in 1× assay buffer+4.66× solution 2: 2.796 μM UBE2D2/Methylated-HA-Ubiquitin thioester adduct (BostonBiochem) in 1× assay buffer) were prepared. 4 μL of 2× enzyme solution was added to each well containing compound, briefly centrifuged to mix, and incubated for 60 min at room temperature. 4 μL of 2× kinase mixture was added, briefly centrifuged to mix, and incubated for 90 min. at room temperature. 6 μL of detection mixture was added to all wells and briefly centrifuged before incubating for 20 min at room temperature. Plates were read for TR-FRET using an Envision at excitation 340 nm, emission at 615 and 665 nm, 4 flashes per well. IC50 was generated using no LCK as the low control and DMSO as the high control.
(§2) Cbl-b Lck HTRF data in Table 3 is measured according to Example 25 herein; C-cbl Lck HTRF data is measured according to Example 25 herein.
(§3) SPR and the LCK biochemical assay are orthogonal assays: SPR is a protein binding assay while the LCK assay is an enzyme activity assay. SPR measures compound binding affinity to CBL-B/C-CBL, whereas LCK assay measures compound inhibition of CBL-B/C-CBL ubiquitin transfer activity.

c-Cbl = c-Cbl (Homo sapiens (Human), UniProt P22681); assay: C-cbl LCK Ub TR-FRET assay (C-cbl Lck HTRF); type: biochemical
Chain of c-Cbl (P22681 47-435): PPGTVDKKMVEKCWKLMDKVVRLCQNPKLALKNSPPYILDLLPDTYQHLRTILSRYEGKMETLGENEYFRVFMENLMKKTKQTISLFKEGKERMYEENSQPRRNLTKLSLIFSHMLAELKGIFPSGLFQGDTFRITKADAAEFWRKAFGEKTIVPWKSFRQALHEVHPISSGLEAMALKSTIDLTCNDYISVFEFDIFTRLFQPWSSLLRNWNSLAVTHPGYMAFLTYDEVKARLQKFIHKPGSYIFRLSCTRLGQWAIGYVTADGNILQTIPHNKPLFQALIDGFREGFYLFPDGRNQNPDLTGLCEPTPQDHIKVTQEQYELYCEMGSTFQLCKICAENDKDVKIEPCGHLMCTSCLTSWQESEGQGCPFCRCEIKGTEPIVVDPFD
Experimental: as §1, §2, §3

Chain of Cbl-b (Q13191 40-426): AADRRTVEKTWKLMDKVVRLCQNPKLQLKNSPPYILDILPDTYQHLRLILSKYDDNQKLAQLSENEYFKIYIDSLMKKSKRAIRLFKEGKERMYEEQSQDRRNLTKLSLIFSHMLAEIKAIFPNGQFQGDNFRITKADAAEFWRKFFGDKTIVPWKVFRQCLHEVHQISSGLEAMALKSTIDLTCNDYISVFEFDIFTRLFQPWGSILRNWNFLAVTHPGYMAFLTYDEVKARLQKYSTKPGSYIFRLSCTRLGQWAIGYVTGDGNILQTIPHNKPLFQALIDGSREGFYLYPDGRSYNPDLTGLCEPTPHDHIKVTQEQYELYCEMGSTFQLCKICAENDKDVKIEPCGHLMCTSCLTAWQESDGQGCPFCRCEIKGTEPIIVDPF

| (fold-selectivity) (Cbl-b) | IC50 (Cbl-b) [nM] | IC50 (c-Cbl) [nM] | SMILES |
| --- | --- | --- | --- |
| (0.76x) | 290 | 220 | C[C@@H](c1cc(C(=O)Nc2cccc(C3([C@H](F)c4nncn4C)COC3)c2)nc(C2CC2)c1)N1CC(C)(F)C1 [Compound 114, 6-cyclopropyl-N-(3-(3-((S)-fluoro(4-methyl-4H-1,2,4-triazol-3-yl)methyl)oxetan-3-yl)phenyl)-4-((S)-1-(3-fluoro-3-methylazetidin-1-yl)ethyl)picolinamide] |
| (1.1x) | 15000 | 17000 | Cn1cnnc1[C@H](F)[C@@]1(c2cccc(NC(=O)c3cccc(C(F)(F)F)n3)c2)CCO1 [Compound 501, N-(3-((S)-2-((S)-fluoro(4-methyl-4H-1,2,4-triazol-3-yl)methyl)oxetan-2-yl)phenyl)-6-(trifluoromethyl)picolinamide] |
| (1.1x) | 3700 | 3900 | Cn1cnnc1C(F)C1(c2cccc(NC(=O)c3nc(C(F)(F)F)c[nH]3)c2)COC1 (stereo not drawn) [Compound 124, N-(3-(3-(fluoro(4-methyl-4H-1,2,4-triazol-3-yl)methyl)oxetan-3-yl)phenyl)-4-(trifluoromethyl)-1H-imidazole-2-carboxamide] |
| (1.1x) | 50 | 56 | C[C@H](c1cc(C(=O)Nc2cccc(C3([C@H](F)c4nncn4C)COC3)c2)nc(C2CC2)c1)N1CC(C)(F)C1 [Compound 115, 6-cyclopropyl-N-(3-(3-((S)-fluoro(4-methyl-4H-1,2,4-triazol-3-yl)methyl)oxetan-3-yl)phenyl)-4-((R)-1-(3-fluoro-3-methylazetidin-1-yl)ethyl)picolinamide] |
| (0.94x) | 230 | 210 | C[C@@H](c1cc(C(=O)Nc2cccc(C3([C@@H](F)c4nncn4C)COC3)c2)nc(C2CC2)c1)N1CC(C)(F)C1 [Compound 112, 6-cyclopropyl-N-(3-(3-((R)-fluoro(4-methyl-4H-1,2,4-triazol-3-yl)methyl)oxetan-3-yl)phenyl)-4-((S)-1-(3-fluoro-3-methylazetidin-1-yl)ethyl)picolinamide] |
| (0.76x) | 13 | 10 | Cn1cnnc1CC1(c2cccc(NC(=O)c3cc(CN4CC(C)(CO)C4)cc(C4CC4)n3)c2)CC(F)(F)C1 [Compound 496, 6-cyclopropyl-N-(3-(3,3-difluoro-1-((4-methyl-4H-1,2,4-triazol-3-yl)methyl)cyclobutyl)phenyl)-4-((3-(hydroxymethyl)-3-methylazetidin-1-yl)methyl)picolinamide] |

Second part, the compound before the results:

| SMILES | (fold-selectivity) (Cbl-b) | IC50 (Cbl-b) [nM] | IC50 (c-Cbl) [nM] |
| --- | --- | --- | --- |
| CN(C)Cc1cc(C(=O)Nc2cccc(C3(Cc4nncn4C)COC3)c2)nc(C(F)(F)F)c1 [Compound 67, 4-((dimethylamino)methyl)-N-(3-(3-((4-methyl-4H-1,2,4-triazol-3-yl)methyl)oxetan-3-yl)phenyl)-6-(trifluoromethyl)picolinamide] | (1.6x) | 210 | 340 |
| C[C@H](c1cc(C(=O)Nc2cccc(C3([C@H](F)c4nncn4C)COC3)c2)nc(C2CC2)c1)N1CCC2(CC2)C1 [Compound 25, 4-((R)-1-(5-azaspiro[2.4]heptan-5-yl)ethyl)-6-cyclopropyl-N-(3-(3-((S)-fluoro(4-methyl-4H-1,2,4-triazol-3-yl)methyl)oxetan-3-yl)phenyl)picolinamide] | (1.0x) | 20 | 20 |
| Cn1cnnc1[C@H](F)[C@@](C)(F)c1cccc(NC(=O)c2cc(CN3CC(C)(F)C3)nc(C3CC3)n2)c1 [Compound 44, 2-cyclopropyl-N-(3-((1S,2S)-1,2-difluoro-1-(4-methyl-4H-1,2,4-triazol-3-yl)propan-2-yl)phenyl)-6-((3-fluoro-3-methylazetidin-1-yl)methyl)pyrimidine-4-carboxamide] | (2.1x) | 2300 | 4900 |
| Cn1cnnc1[C@H](F)C1(c2cccc(NC(=O)c3cc(CN4CC(C)(F)C4)cc(C(F)(F)F)n3)c2)COC1 [Compound 60, (R)-N-(3-(3-(fluoro(4-methyl-4H-1,2,4-triazol-3-yl)methyl)oxetan-3-yl)phenyl)-4-((3-fluoro-3-methylazetidin-1-yl)methyl)-6-(trifluoromethyl)picolinamide] | (2.5x) | 130 | 330 |
| Cn1cnnc1[C@H](F)[C@](C)(F)c1cccc(NC(=O)c2cc(CN3CC(C)(F)C3)nc(C3CC3)n2)c1 [Compound 43, 2-cyclopropyl-N-(3-((1S,2R)-1,2-difluoro-1-(4-methyl-4H-1,2,4-triazol-3-yl)propan-2-yl)phenyl)-6-((3-fluoro-3-methylazetidin-1-yl)methyl)pyrimidine-4-carboxamide] | (2.3x) | 320 | 740 |
| Cn1cnnc1[C@H](F)[C@](C)(F)c1cccc(NC(=O)c2cc(CN3CCC4(CC4)C3)cc(C3CC3)n2)c1 [Compound 35, 4-(5-azaspiro[2.4]heptan-5-ylmethyl)-6-cyclopropyl-N-(3-((1S,2R)-1,2-difluoro-1-(4-methyl-4H-1,2,4-triazol-3-yl)propan-2-yl)phenyl)picolinamide] | (1.8x) | 23 | 400 |
| C[C@H](c1cc(C(=O)Nc2cccc(C3([C@@H](F)c4nncn4C)COC3)c2)nc(C2CC2)c1)N1CCC2(CC2)C1 [Compound 23, 4-((R)-1-(5-azaspiro[2.4]heptan-5-yl)ethyl)-6-cyclopropyl-N-(3-(3-((R)-fluoro(4-methyl-4H-1,2,4-triazol-3-yl)methyl)oxetan-3-yl)phenyl)picolinamide] | (0.94x) | 50 | 47 |
| Cn1cnnc1[C@@H](F)C1(c2cccc(NC(=O)c3cc(CN4CC(C)(F)C4)nc(C4CC4)n3)c2)COC1 [Compound 21, 2-cyclopropyl-6-[(3-fluoro-3-methyl-azetidin-1-yl)methyl]-N-[3-[3-[(S)-fluoro-(4-methyl-1,2,4-triazol-3-yl)methyl]oxetan-3-yl]phenyl]pyrimidine-4-carboxamide] | (1.3x) | 510 | 670 |
| C[C@H](Cc1nncn1C)c1cccc(NC(=O)c2nc(C(F)(F)F)c(CN3CCC4(CC4)C3)[nH]2)c1 [Compound 26, (R)-5-(5-azaspiro[2.4]heptan-5-ylmethyl)-N-(3-(1-(4-methyl-4H-1,2,4-triazol-3-yl)propan-2-yl)phenyl)-4-(trifluoromethyl)-1H-imidazole-2-carboxamide] | (1.5x) | 1500 | 2200 |
| Cn1cnnc1[C@H](F)[C@@](C)(F)c1cccc(NC(=O)c2cc(CN3CCC4(CC4)C3)cc(C3CC3)n2)c1 [Compound 36, 4-(5-azaspiro[2.4]heptan-5-ylmethyl)-6-cyclopropyl-N-(3-((1S,2S)-1,2-difluoro-1-(4-methyl-4H-1,2,4-triazol-3-yl)propan-2-yl)phenyl)picolinamide] | (1.8x) | 140 | 240 |
| C[C@@H](c1cc(C(=O)Nc2cccc(C3([C@@H](F)c4nncn4C)COC3)c2)nc(C2CC2)c1)N1CCC2(CC2)C1 [Compound 22, 4-((S)-1-(5-azaspiro[2.4]heptan-5-yl)ethyl)-6-cyclopropyl-N-(3-(3-((R)-fluoro(4-methyl-4H-1,2,4-triazol-3-yl)methyl)oxetan-3-yl)phenyl)picolinamide] | (0.87x) | 12 | 10 |
| Cn1cnnc1[C@@H](F)[C@@](C)(F)c1cccc(NC(=O)c2cc(CN3CCC4(CC4)C3)cc(C3CC3)n2)c1 [Compound 37, 4-(5-azaspiro[2.4]heptan-5-ylmethyl)-6-cyclopropyl-N-(3-((1R,2S)-1,2-difluoro-1-(4-methyl-4H-1,2,4-triazol-3-yl)propan-2-yl)phenyl)picolinamide] | (2.0x) | 780 | 1500 |
| Cn1cnnc1[C@@H](F)C1(c2cccc(NC(=O)c3cc(CN4CC(C)(F)C4)cc(C(F)(F)F)n3)c2)COC1 [Compound 61, (S)-N-(3-(3-(fluoro(4-methyl-4H-1,2,4-triazol-3-yl)methyl)oxetan-3-yl)phenyl)-4-((3-fluoro-3-methylazetidin-1-yl)methyl)-6-(trifluoromethyl)picolinamide] | (2.3x) | 180 | 420 |
| Cn1cnnc1C[C@]1(c2cccc(NC(=O)c3cccc(C(F)(F)F)n3)c2)C[C@@H](F)C1 [Compound 19, N-(3-((1S,3R)-3-fluoro-1-((4-methyl-4H-1,2,4-triazol-3-yl)methyl)cyclobutyl)phenyl)-6-(trifluoromethyl)picolinamide] | (2.1x) | 280 | 570 |
